Key:
PGE2 secretion = experiment: Inhibition of PGE2 secretion in LPS activated mouse macrophages (RAW 264.7); type: cell-based; conditions: RAW264.7, LPS activated RAW 264.7 cells, same experimental setup, known anti-inflammatory drugs
Experimental: The assay reproduces in vitro the true enzymatic activity, the test compounds, up to 10 μM, were preincubated for 5 minutes with purified COX-2, then the natural substrate AA was added and the reaction was allowed to proceed for 2 minutes. HCl was used to stop the enzyme catalysis and saturated stannous chloride was added to stabilize the PGH2 product into PGF2α.
RAW 264.7 macrophages, a mouse cell line (ATCC # TIB 71), were grown in Dulbecco's modified Eagle's medium (DMEM) with 4 mM L-glutamine adjusted to contain 1.5 g/L sodium bicarbonate, 4.5 g/L glucose, and 10% heat inactivated fetal bovine serum. Cells were grown in tissue culture flasks and seeded at appropriate density into 24 wells tissue culture plates. 0.5×10^6 Raw cells in one milliliter were stimulated with 2 μg/ml Lipopolysaccharide E. coli 055:B5 (DIFCO Laboratories). The mouse macrophages were pre-treated for one hour with controls or 10 μM of dexanabinol and its analogs, unless indicated otherwise, and later on activated with LPS.

[1] = test system: carrageenan induced paw edema; experiment: Carrageenan induced paw edema; type: in vivo, mice; conditions: 3 hours after carrageenan
SAA-3 gene expression = experiment: SAA-3 liver gene expression (acute phase response), ConA model; type: in vivo, mice; conditions: 1 mg/kg, on average at both time points of four and eight hours
Experimental: (§1) II reverse transcriptase (Life Technologies).
(§2) Each experimental group contained at least twenty BALB/c inbred female mice (25 g average weight, Harlan, Israel). The negative control group was composed of mice injected with saline instead of ConA. The injection of ConA (Sigma) was done i.v. at the base of the tail at the dose of 15 mg/kg in saline. The treatments were injected i.v. at 5 mg/kg, 30 minutes before ConA injection, unless indicated otherwise. Compounds were dissolved in cremophor:ethanol, further diluted with saline before injection, and vehicle only was included as an internal control. Analysis was performed at predetermined time points following ConA injection.
(§3) The acute phase response is an innate body defense seen during acute inflammation, infection and trauma, which involves the altered production of certain blood proteins termed acute phase proteins (APPs). As previously stated activated macrophages and other leukocytes release pro-inflammatory cytokines such as TNF-α, IL-1 and IL-6. These cytokines in turn stimulate hepatocytes to synthesize and secrete acute phase proteins such as C-reactive protein (CRP), mannose-binding lectin (MBL), haptoglobin and serum amyloid A (SAA). Measurement of acute phase protein level is used to monitor the severity of the innate response and thus predict the prognosis of the disease. […]

[2] = test system: ConA injured liver (ALT release); experiment: ALT release from ConA injured liver; type: in vivo, mice; conditions: PRS-211,092 5 mg/kg, FK-506 1 mg/kg
Experimental: as §2
Impact of treatment was monitored at three levels. First, blood samples (200-400 μl) were collected at predetermined time points after ConA injection, using retro-orbital puncture. After short centrifugation (5000 rpm for 2 min) serum was recovered and stored at −80° C. until further use for determination of cytokines concentrations by ELISA and aminotransferase release from the liver as a marker for liver injury.
Alanine aminotransferase (ALT) is an enzyme found mainly in the liver and it is measured to determine whether the liver is damaged or diseased in a variety of human conditions, especially hepatitis and cirrhosis. The level of its release into the bloodstream linearly correlates with the severity of the liver injury and thus it can be used both for diagnosis purposes and to monitor the efficiency of a treatment. The time course of plasma ALT release after ConA injection is known from the literature to peak at eight hours. […] We used this assay to preliminarily assess the temporal window of PRS-211,092 efficiency and the compound was administered either 30 or 60 minutes after induction of injury. […] FK-506 was used as positive control and at the dose of 1 mg/kg, it reduced ALT concentrations by 92%, 93% and 86% when injected at the three previously described time points. Thus, the test compound has an important beneficial impact on liver injury as assessed by the reduction of ALT, a robust marker of the liver injury. […]

[3] = test system: haptoglobin gene expression; experiment: Haptoglobin liver gene expression (acute phase response), ConA model; type: in vivo, mice; conditions: 1 mg/kg, on average at both time points of four and eight hours
Experimental: as §1, §2, §3

recombinant COX-2 = recombinant COX-2 (Homo sapiens, UniProt P35354); experiment: In vitro enzymatic activity of recombinant COX-2 (PGF2α EIA); type: biochemical
recombinant COX-2, sequence (P35354 18-604): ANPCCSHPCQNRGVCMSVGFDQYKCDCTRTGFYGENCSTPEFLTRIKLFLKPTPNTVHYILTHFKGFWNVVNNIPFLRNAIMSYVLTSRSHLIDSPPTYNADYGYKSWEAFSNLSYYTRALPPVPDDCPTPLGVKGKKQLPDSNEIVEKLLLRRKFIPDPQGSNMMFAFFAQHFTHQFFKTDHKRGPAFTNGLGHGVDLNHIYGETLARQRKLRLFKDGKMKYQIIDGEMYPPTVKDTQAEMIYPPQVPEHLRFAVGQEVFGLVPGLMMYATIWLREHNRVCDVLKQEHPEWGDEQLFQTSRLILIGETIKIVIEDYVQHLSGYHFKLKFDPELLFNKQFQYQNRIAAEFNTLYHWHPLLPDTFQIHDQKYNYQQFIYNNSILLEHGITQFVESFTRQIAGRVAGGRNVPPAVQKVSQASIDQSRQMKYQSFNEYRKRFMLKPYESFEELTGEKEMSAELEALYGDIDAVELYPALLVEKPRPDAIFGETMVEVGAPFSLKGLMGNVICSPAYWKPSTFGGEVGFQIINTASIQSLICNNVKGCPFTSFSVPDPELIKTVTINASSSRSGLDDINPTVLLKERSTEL

| Structure (SMILES) | IC50 (PGE2 secretion) | Reduction in paw thickness ([1]; 0.1 mg/kg i.p.) | Reduction in paw thickness ([1]; 0.25 mg/kg i.p.) | Reduction in paw thickness ([1]; 0.5 mg/kg i.p.) | further results |
| --- | --- | --- | --- | --- | --- |
| Cc1ccc(-c2cc(C(F)(F)F)nn2-c2ccc(S(N)(=O)=O)cc2)cc1 [Celecoxib] | 5 nM | 24% | 28% | 33% | – |
| C[C@@H]1C[C@H]2[C@@H]3CCC4=CC(=O)C=C[C@]4(C)[C@@]3(F)[C@@H](O)C[C@]2(C)[C@@]1(O)C(=O)CO [Dexamethasone] | – | 26% | 31% | 33% | – |
| C=CC[C@@H]1/C=C(\C)C[C@H](C)C[C@H](OC)[C@H]2O[C@@](O)(C(=O)C(=O)N3CCCC[C@H]3C(=O)O[C@H](/C(C)=C/[C@@H]3CC[C@@H](O)[C@H](OC)C3)[C@H](C)[C@@H](O)CC1=O)[C@H](C)C[C@@H]2OC [FK-506] | – | – | – | – | Reduction in gene expression of SAA-3 (SAA-3 gene expression): 97%; Reduction of ALT concentrations ([2]; administered 30 minutes after induction of injury): 93%; Reduction of ALT concentrations ([2]; administered 30 minutes before ConA, 8 hours after ConA): 92%; Reduction of ALT concentrations ([2]; administered 60 minutes after induction of injury): 86%; Reduction in gene expression of haptoglobin [3]: 78% |
| CS(=O)(=O)Nc1ccc([N+](=O)[O-])cc1OC1CCCCC1 [NS-398] | 100 nM | – | – | – | – |
| CS(=O)(=O)c1ccc(C2=C(c3ccccc3)C(=O)OC2)cc1 [Rofecoxib, reference compound] | 100 nM | – | – | – | Inhibition of COX-2 enzymatic activity (recombinant COX-2): strongly inhibited |

Reference: US20050137251A1, “Dexanabinol and dexanabinol analogs regulate inflammation related genes” (priority 2002, published 2005)
